From article PMC10046369, “Low-Affinity/High-Selectivity Dopamine Transport Inhibition Sufficient to Rescue Cognitive Functions in the Aging Rat” (Biomolecules, 2023)

How the values were obtained:
Test in all cases: biochemical
Set-up in all cases: KINOMEscan competition binding panel, per cent of control
Details in all cases: read-out: %Ctrl @ 2800nM
INSRR = INSRR (Homo sapiens, UniProt P14616)
Outline: (§1)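 Values are expressed as percent of control, calculated as ((test − positive control)/(negative control − positive control)) × 100, so lower numbers mean stronger hits. Binding was measured by KINOMEscan competition assay in a 450-kinase human panel including disease mutants, using the contractor's validated protocol.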

PIK4CB = target: T1, PIK4CB (Homo sapiens, UniProt Q9UBF8)
T1 construct: gene PI4KB
Outline: as §1

PRKG1 = PRKG1 (Homo sapiens, UniProt Q13976)
Outline: as §1

EPHB3 = EPHB3 (Homo sapiens, UniProt P54753)
Chain of EPHB3 (P54753 whole entry): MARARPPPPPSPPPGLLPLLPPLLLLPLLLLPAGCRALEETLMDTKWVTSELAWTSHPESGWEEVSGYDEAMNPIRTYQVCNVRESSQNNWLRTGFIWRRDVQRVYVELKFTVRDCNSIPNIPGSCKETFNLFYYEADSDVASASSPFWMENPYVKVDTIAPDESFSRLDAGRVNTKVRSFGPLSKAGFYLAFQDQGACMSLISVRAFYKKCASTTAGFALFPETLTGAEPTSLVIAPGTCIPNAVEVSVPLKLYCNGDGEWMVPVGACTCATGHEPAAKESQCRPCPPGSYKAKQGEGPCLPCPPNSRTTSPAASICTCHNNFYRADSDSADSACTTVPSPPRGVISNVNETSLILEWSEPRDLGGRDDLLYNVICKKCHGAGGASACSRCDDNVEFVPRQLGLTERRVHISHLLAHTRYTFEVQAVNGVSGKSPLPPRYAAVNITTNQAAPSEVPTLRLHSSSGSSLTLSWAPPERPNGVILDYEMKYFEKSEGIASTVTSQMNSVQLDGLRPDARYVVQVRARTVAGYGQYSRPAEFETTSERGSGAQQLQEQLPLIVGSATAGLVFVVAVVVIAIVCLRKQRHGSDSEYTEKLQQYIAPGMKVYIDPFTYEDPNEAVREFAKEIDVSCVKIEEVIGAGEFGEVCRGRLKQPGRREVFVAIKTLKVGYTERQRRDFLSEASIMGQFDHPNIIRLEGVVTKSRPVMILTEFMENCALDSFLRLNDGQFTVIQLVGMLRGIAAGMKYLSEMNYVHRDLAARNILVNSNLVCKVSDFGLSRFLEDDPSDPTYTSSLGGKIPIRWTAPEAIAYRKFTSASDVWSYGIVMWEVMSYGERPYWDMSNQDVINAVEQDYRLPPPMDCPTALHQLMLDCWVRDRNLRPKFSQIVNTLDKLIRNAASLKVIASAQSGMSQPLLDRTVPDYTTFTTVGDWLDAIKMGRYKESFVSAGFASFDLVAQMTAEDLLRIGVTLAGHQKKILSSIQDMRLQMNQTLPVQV
Outline: as §1

TLK2 = TLK2 (Homo sapiens, UniProt Q86UE8)
Outline: as §1

TNNI3K = TNNI3K (Homo sapiens, UniProt Q59H18)
Outline: as §1

CSNK2A1 = CSNK2A1 (Homo sapiens, UniProt P68400)
Outline: as §1

CAMK2G = CAMK2G (Homo sapiens, UniProt Q13555)
Outline: as §1

CSF1R = CSF1R (Homo sapiens, UniProt P07333)
Outline: as §1

HUNK = HUNK (Homo sapiens, UniProt P57058)
Outline: as §1

PLK1 = PLK1 (Homo sapiens, UniProt P53350)
Outline: as §1

CLK4 = CLK4 (Homo sapiens, UniProt Q9HAZ1)
Chain of CLK4 (Q9HAZ1 whole entry): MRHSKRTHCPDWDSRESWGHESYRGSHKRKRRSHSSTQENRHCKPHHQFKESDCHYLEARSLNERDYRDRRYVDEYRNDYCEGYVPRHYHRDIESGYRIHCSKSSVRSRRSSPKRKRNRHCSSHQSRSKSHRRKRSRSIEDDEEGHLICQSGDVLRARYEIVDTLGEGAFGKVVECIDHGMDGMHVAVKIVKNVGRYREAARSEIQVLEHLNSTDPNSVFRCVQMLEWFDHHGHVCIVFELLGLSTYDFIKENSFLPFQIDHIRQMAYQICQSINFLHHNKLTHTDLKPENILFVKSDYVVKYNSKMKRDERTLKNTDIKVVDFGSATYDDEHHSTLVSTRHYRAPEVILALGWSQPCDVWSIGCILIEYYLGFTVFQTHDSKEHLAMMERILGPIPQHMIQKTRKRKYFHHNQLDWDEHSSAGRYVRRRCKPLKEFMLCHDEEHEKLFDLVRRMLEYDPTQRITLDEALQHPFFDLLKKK
Outline: as §1

MAP3K3 = MAP3K3 (Homo sapiens, UniProt Q99759)
Outline: as §1

[1] = target: T2, ABL1(Q252H)-nonphosphorylated (Homo sapiens, UniProt P00519, Q252H)
T2 construct: nonphosphorylated
Outline: as §1

EGFR(L861Q) = EGFR(L861Q) (Homo sapiens, UniProt P00533, L861Q)
Outline: as §1

KIT-autoinhibited = KIT-autoinhibited (Homo sapiens, UniProt P10721)
Outline: as §1

[2] = target: T3, RSK4(Kin.Dom.2-C-terminal) (Homo sapiens, UniProt Q9UK32)
T3 construct: gene RPS6KA6; Kin.Dom.2-C-terminal
Outline: as §1

IRAK1 = IRAK1 (Homo sapiens, UniProt P51617)
Outline: as §1

KIT(L576P) = KIT(L576P) (Homo sapiens, UniProt P10721, L576P)
Outline: as §1

DAPK2 = DAPK2 (Homo sapiens, UniProt Q9UIK4)
Chain of DAPK2 (Q9UIK4 whole entry): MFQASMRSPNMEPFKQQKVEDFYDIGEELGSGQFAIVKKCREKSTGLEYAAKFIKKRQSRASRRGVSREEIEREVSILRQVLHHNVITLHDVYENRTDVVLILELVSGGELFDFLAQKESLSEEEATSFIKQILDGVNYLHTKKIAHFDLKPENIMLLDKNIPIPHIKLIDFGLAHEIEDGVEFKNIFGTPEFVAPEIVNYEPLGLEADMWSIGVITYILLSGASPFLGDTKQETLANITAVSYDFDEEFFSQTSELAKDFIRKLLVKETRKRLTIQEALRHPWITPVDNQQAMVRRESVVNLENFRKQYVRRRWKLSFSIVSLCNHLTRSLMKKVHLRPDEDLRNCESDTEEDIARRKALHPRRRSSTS
Outline: as §1

BMX = BMX (Homo sapiens, UniProt P51813)
Outline: as §1

MRCKA = target: T4, MRCKA (Homo sapiens, UniProt Q5VT25)
T4 construct: gene CDC42BPA
T4 sequence (Q5VT25 whole entry): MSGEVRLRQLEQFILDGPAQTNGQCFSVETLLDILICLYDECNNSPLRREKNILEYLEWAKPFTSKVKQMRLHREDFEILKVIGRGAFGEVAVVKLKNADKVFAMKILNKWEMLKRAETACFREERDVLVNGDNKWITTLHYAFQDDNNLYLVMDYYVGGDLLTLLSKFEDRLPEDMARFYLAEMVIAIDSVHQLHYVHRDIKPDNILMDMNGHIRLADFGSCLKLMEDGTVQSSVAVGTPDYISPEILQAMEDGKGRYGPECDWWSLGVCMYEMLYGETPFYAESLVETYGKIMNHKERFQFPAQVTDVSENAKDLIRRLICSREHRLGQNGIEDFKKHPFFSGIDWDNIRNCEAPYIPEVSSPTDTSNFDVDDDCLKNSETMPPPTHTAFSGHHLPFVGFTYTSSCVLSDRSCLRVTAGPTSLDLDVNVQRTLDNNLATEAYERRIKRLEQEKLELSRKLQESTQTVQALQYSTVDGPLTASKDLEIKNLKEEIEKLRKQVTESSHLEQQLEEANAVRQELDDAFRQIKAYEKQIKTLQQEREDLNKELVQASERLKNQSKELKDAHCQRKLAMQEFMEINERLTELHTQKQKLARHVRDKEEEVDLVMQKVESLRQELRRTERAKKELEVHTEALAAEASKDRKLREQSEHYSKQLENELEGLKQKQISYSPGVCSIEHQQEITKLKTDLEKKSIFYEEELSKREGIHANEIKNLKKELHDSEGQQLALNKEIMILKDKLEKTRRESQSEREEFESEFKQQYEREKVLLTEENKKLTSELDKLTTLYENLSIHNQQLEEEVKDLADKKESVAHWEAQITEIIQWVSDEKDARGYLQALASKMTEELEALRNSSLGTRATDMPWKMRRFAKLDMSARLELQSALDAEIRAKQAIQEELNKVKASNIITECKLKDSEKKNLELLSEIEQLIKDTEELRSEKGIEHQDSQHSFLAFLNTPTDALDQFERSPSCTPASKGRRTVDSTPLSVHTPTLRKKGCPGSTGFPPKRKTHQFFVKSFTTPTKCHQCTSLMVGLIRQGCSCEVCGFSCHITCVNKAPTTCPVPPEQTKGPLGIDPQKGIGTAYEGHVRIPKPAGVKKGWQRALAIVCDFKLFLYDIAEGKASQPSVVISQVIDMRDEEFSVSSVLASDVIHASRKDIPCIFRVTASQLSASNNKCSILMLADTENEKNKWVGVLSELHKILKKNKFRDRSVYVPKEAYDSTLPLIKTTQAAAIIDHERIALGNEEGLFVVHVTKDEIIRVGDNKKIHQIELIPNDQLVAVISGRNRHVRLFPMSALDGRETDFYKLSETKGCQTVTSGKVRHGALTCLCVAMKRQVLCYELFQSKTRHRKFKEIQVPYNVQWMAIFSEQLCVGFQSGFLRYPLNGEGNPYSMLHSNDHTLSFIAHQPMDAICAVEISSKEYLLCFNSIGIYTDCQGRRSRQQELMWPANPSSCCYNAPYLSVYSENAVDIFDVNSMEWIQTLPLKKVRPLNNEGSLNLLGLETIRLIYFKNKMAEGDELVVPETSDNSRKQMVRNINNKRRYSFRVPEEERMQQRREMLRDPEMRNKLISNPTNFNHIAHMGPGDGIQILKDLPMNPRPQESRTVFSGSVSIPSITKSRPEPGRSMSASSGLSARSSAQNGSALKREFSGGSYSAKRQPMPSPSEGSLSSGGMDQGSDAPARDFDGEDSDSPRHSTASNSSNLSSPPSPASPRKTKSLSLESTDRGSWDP
Outline: as §1

BRK = target: T5, BRK (Homo sapiens, UniProt Q13882)
T5 construct: gene PTK6
T5 sequence (Q13882 whole entry): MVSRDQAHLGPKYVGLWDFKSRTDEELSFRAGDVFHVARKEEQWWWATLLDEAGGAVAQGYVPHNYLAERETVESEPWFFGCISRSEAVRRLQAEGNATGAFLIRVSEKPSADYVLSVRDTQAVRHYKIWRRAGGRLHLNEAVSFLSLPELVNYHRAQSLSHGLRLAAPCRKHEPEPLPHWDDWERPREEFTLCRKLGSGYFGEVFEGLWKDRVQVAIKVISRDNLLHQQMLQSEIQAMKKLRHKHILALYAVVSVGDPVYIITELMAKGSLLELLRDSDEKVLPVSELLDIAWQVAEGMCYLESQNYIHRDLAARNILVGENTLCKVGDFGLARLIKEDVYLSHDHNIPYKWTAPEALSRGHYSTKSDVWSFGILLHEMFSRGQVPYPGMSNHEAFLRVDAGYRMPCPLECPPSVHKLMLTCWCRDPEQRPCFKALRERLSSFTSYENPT
Outline: as §1

MINK = target: T6, MINK (Homo sapiens, UniProt Q8N4C8)
T6 construct: gene MINK1
Outline: as §1

CLK2 = CLK2 (Homo sapiens, UniProt P49760)
Outline: as §1

DLK = target: T7, DLK (Homo sapiens, UniProt Q12852)
T7 construct: gene MAP3K12
T7 sequence (Q12852 whole entry): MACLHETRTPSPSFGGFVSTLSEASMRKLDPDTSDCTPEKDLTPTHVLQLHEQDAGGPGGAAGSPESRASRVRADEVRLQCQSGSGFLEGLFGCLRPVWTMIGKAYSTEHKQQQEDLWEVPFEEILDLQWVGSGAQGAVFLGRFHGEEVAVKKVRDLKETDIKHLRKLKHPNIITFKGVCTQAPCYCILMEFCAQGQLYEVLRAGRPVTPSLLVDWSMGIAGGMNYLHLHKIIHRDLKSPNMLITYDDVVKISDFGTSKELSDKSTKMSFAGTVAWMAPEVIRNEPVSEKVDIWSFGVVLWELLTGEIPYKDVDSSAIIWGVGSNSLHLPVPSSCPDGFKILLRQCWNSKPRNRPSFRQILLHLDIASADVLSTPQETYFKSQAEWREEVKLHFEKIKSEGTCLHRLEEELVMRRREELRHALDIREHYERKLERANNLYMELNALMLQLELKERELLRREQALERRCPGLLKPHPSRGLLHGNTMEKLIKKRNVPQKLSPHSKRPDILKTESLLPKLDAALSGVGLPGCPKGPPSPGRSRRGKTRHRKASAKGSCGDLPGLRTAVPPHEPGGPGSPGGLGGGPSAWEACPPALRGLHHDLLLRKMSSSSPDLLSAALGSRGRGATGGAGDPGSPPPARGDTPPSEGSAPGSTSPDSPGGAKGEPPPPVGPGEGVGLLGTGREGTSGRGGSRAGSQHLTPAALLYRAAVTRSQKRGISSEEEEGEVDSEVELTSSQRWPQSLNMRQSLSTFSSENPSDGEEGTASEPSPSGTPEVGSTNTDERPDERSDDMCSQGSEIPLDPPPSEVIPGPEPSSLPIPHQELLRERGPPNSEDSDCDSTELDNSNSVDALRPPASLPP
Outline: as §1

## [O-][S@@+](Cc1cncs1)C(c1ccccc1)c1ccccc1 [S-CE-123, (S)-5-((Benzhydrylsulfinyl)Methyl)Thiazole]
INSRR
  remaining binding at 2.8 µM: 94%
PIK4CB
  remaining binding at 2.8 µM: 94%
PRKG1
  remaining binding at 2.8 µM: 100%
EPHB3
  remaining binding at 2.8 µM: 100%
TLK2
  remaining binding at 2.8 µM: 95%
TNNI3K
  remaining binding at 2.8 µM: 100%
CSNK2A1
  remaining binding at 2.8 µM: 88%
CAMK2G
  remaining binding at 2.8 µM: 95%
CSF1R
  remaining binding at 2.8 µM: 76%
HUNK
  remaining binding at 2.8 µM: 100%
PLK1
  remaining binding at 2.8 µM: 79%
CLK4
  remaining binding at 2.8 µM: 100%
MAP3K3
  remaining binding at 2.8 µM: 86%
[1]
  remaining binding at 2.8 µM: 66%
EGFR(L861Q)
  remaining binding at 2.8 µM: 98%
KIT-autoinhibited
  remaining binding at 2.8 µM: 86%
[2]
  remaining binding at 2.8 µM: 94%
IRAK1
  remaining binding at 2.8 µM: 91%
KIT(L576P)
  remaining binding at 2.8 µM: 99%
DAPK2
  remaining binding at 2.8 µM: 96%
BMX
  remaining binding at 2.8 µM: 57%
MRCKA
  remaining binding at 2.8 µM: 95%
BRK
  remaining binding at 2.8 µM: 96%
MINK
  remaining binding at 2.8 µM: 87%
CLK2
  remaining binding at 2.8 µM: 93%
DLK
  remaining binding at 2.8 µM: 100%
